In US12209087B2, “AKT1 modulators” (Alterome Therapeutics, Inc., priority 2022, dated 2025):

Biological target: T1, full length AKT E17K (Homo sapiens, UniProt P31749, E17K)
T1 construct: host or cells: HEK-293 (ATCC CRL-1573)
Experiment: NanoBRET Target Engagement (TE) Assay
Format: cell-based
Conditions: competitive displacement of tracer in cells, read-out: AKT1 E17K IC50
How it was run: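 Compound and tracer incubated 2 h before luminescence at donor 450 nm and acceptor 600 nm, with extracellular signal inhibited. EC50 by sigmoidal variable-slope regression.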

T1 sequence (P31749 whole entry E17K): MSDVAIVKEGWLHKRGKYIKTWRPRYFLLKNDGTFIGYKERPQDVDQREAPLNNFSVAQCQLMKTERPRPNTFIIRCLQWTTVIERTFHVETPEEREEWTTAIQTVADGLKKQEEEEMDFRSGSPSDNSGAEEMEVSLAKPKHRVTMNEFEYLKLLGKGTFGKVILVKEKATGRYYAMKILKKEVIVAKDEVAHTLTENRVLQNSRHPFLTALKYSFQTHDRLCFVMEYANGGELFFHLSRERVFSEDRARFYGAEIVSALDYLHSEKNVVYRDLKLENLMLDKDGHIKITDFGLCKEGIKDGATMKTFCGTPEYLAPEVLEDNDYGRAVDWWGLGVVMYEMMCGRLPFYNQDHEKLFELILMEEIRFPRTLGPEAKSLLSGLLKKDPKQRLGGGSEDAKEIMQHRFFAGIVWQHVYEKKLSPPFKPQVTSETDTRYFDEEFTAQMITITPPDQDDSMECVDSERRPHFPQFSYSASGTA

Structure (SMILES) | IC50 [nM]
N#Cc1nccc(NC2CCN(Cc3ccc(-n4c(-c5cccnc5N)nc5ccc(-c6cn[nH]n6)nc54)cc3)CC2)n1 [Example 613, 4-((1-(4-(2-(2-Aminopyridin-3-yl)-5-(2H-1,2,3-triazol-4-yl)-3H-imidazo[4,5-b]pyridin-3-yl)benzyl)piperidin-4-yl)amino)pyrimidine-2-carbonitrile] | < 15
Cc1nn(C)nc1-c1ccc2nc(-c3cccnc3N)n(-c3ccc(CN4CCC(Nc5ccnc(C#N)n5)CC4)cc3)c2n1 [Example 614, 4-((1-(4-(2-(2-Aminopyridin-3-yl)-5-(2,5-dimethyl-2H-1,2,3-triazol-4-yl)-3H-imidazo[4,5-b]pyridin-3-yl)benzyl)piperidin-4-yl)amino)pyrimidine-2-carbonitrile] | < 15
N#Cc1nccc(NC2CCN(Cc3ccc(-n4c(-c5cccnc5N)nc5ccc(-c6cnn(C7CC7)n6)nc54)cc3)CC2)n1 [Example 615, 4-((1-(4-(2-(2-Aminopyridin-3-yl)-5-(2-cyclopropyl-2H-1,2,3-triazol-4-yl)-3H-imidazo[4,5-b]pyridin-3-yl)benzyl)piperidin-4-yl)amino)pyrimidine-2-carbonitrile] | < 15
[2H]c1nn(C)nc1-c1ccc2nc(-c3cccnc3N)n(-c3ccc(CN4CCC(Nc5ccnc(C#N)n5)CC4)cc3)c2n1 [Example 616, 4-((1-(4-(2-(2-Aminopyridin-3-yl)-5-(2-methyl-2H-1,2,3-triazol-4-yl-5-d)-3H-imidazo[4,5-b]pyridin-3-yl)benzyl)piperidin-4-yl)amino)pyrimidine-2-carbonitrile] | < 15
N#Cc1nccc(NC2CCN(Cc3ccc(-n4c(-c5cccnc5N)nc5ccc(-c6ccc(=O)n(C(F)F)c6)nc54)cc3)CC2)n1 [Example 617, 4-((1-(4-(2-(2-Aminopyridin-3-yl)-5-(1-(difluoromethyl)-6-oxo-1,6-dihydropyridin-3-yl)-3H-imidazo[4,5-b]pyridin-3-yl)benzyl)piperidin-4-yl)amino)pyrimidine-2-carbonitrile] | 15 to 60
N#Cc1nccc(NC2CCN(Cc3ccc(-n4c(-c5cccnc5N)nc5ccc(-c6cnn(CF)n6)nc54)cc3)CC2)n1 [Example 618, 4-((1-(4-(2-(2-Aminopyridin-3-yl)-5-(2-(fluoromethyl)-2H-1,2,3-triazol-4-yl)-3H-imidazo[4,5-b]pyridin-3-yl)benzyl)piperidin-4-yl)amino)pyrimidine-2-carbonitrile] | < 15
N#Cc1nccc(NC2CCN(Cc3ccc(-n4c(-c5cccnc5N)nc5ccc(-c6cn(CF)nn6)nc54)cc3)CC2)n1 [Example 619, 4-((1-(4-(2-(2-Aminopyridin-3-yl)-5-(1-(fluoromethyl)-1H-1,2,3-triazol-4-yl)-3H-imidazo[4,5-b]pyridin-3-yl)benzyl)piperidin-4-yl)amino)pyrimidine-2-carbonitrile] | < 15
N#Cc1nccc(NC2CCN(Cc3ccc(-n4c(-c5cccnc5N)nc5ccc(-c6cnn(C(F)F)n6)nc54)cc3)CC2)n1 [Example 620, 4-((1-(4-(2-(2-Aminopyridin-3-yl)-5-(2-(difluoromethyl)-2H-1,2,3-triazol-4-yl)-3H-imidazo[4,5-b]pyridin-3-yl)benzyl)piperidin-4-yl)amino)pyrimidine-2-carbonitrile] | < 15
[2H]C([2H])([2H])n1ncc(-c2ccc3nc(-c4nccnc4N)n(-c4ccc(CN5CCC(Nc6ccnc(C#N)n6)CC5)cc4)c3n2)n1 [Example 621, 4-((1-(4-(2-(3-Aminopyrazin-2-yl)-5-(2-(methyl-d3)-2H-1,2,3-triazol-4-yl)-3H-imidazo[4,5-b]pyridin-3-yl)benzyl)piperidin-4-yl)amino)pyrimidine-2-carbonitrile] | < 15
N#Cc1nccc(NC2CCN(Cc3ccc(-n4c(-c5conc5N)nc5ccc(-c6ccc(F)cn6)nc54)cc3)CC2)n1 [Example 622, 4-((1-(4-(2-(3-Aminoisoxazol-4-yl)-5-(5-fluoropyridin-2-yl)-3H-imidazo[4,5-b]pyridin-3-yl)benzyl)piperidin-4-yl)amino)pyrimidine-2-carbonitrile] | 60 to 600
[2H]C([2H])(F)Oc1ccc(-c2ccc3nc(-c4cccnc4N)n(-c4ccc(CN5CCC(Nc6ccnc(C#N)n6)CC5)cc4)c3n2)cn1 [Example 623, 4-((1-(4-(2-(2-Aminopyridin-3-yl)-5-(6-(fluoromethoxy-d2)pyridin-3-yl)-3H-imidazo[4,5-b]pyridin-3-yl)benzyl)piperidin-4-yl)amino)pyrimidine-2-carbonitrile] | < 15
[2H]C([2H])(F)n1cc(-c2ccc3nc(-c4cccnc4N)n(-c4ccc(CN5CCC(Nc6ccnc(C#N)n6)CC5)cc4)c3n2)ccc1=O [Example 624, 4-((1-(4-(2-(2-Aminopyridin-3-yl)-5-(1-(fluoromethyl-d2)-6-oxo-1,6-dihydropyridin-3-yl)-3H-imidazo[4,5-b]pyridin-3-yl)benzyl)piperidin-4-yl)amino)pyrimidine-2-carbonitrile] | 15 to 60
CCn1cc(-c2ccc3nc(-c4cccnc4N)n(-c4ccc(CN5CCC(Nc6ccnc(C#N)n6)CC5)cc4)c3n2)nn1 [Example 625, 4-((1-(4-(2-(2-Aminopyridin-3-yl)-5-(1-ethyl-1H-1,2,3-triazol-4-yl)-3H-imidazo[4,5-b]pyridin-3-yl)benzyl)piperidin-4-yl)amino)pyrimidine-2-carbonitrile] | < 15
N#CCn1ncc(-c2ccc3nc(-c4cccnc4N)n(-c4ccc(CN5CCC(Nc6ccnc(C#N)n6)CC5)cc4)c3n2)n1 [Example 626, 4-((1-(4-(2-(2-Aminopyridin-3-yl)-5-(2-(cyanomethyl)-2H-1,2,3-triazol-4-yl)-3H-imidazo[4,5-b]pyridin-3-yl)benzyl)piperidin-4-yl)amino)pyrimidine-2-carbonitrile] | < 15
N#Cc1nccc(NC2CCN(Cc3ccc(-n4c(-c5nccnc5N)nc5ccc(-c6cnn(CF)n6)nc54)cc3)CC2)n1 [Example 627, 4-((1-(4-(2-(3-Aminopyrazin-2-yl)-5-(2-(fluoromethyl)-2H-1,2,3-triazol-4-yl)-3H-imidazo[4,5-b]pyridin-3-yl)benzyl)piperidin-4-yl)amino)pyrimidine-2-carbonitrile] | < 15
N#Cc1nccc(NC2CCN(Cc3ccc(-n4c(-c5nccnc5N)nc5ccc(-c6cn(CF)nn6)nc54)cc3)CC2)n1 [Example 628, 4-((1-(4-(2-(3-Aminopyrazin-2-yl)-5-(1-(fluoromethyl)-1H-1,2,3-triazol-4-yl)-3H-imidazo[4,5-b]pyridin-3-yl)benzyl)piperidin-4-yl)amino)pyrimidine-2-carbonitrile] | < 15
CCn1ncc(-c2ccc3nc(-c4nccnc4N)n(-c4ccc(CN5CCC(Nc6ccnc(C#N)n6)CC5)cc4)c3n2)n1 [Example 629, 4-((1-(4-(2-(3-Aminopyrazin-2-yl)-5-(2-ethyl-2H-1,2,3-triazol-4-yl)-3H-imidazo[4,5-b]pyridin-3-yl)benzyl)piperidin-4-yl)amino)pyrimidine-2-carbonitrile] | < 15
CC(C)n1ncc(-c2ccc3nc(-c4nccnc4N)n(-c4ccc(CN5CCC(Nc6ccnc(C#N)n6)CC5)cc4)c3n2)n1 [Example 630, 4-((1-(4-(2-(3-Aminopyrazin-2-yl)-5-(2-isopropyl-2H-1,2,3-triazol-4-yl)-3H-imidazo[4,5-b]pyridin-3-yl)benzyl)piperidin-4-yl)amino)pyrimidine-2-carbonitrile] | < 15
